Where “and” joins values, the source holds several entries; their conditions need not be identical. Equal entries are not always repeated.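 Compound exposure: 48 hours, 5 concentrations, 96-well plates. GI50 = concentration required for 50% inhibition of growth. TGI marks complete inhibition of growth.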
How the values were obtained:
Assay in all cases: inhibition of tumour cell growth, NCI panel, 48 h
ACHN renal = system: ACHN renal
HCC-2998 colon = system: HCC-2998 colon
HL-60(TB) leukemia = system: HL-60(TB) leukemia
IGROV1 ovarian = system: IGROV1 ovarian
NCI-H226 lung = system: NCI-H226 lung
OVCAR-3 ovarian = system: OVCAR-3 ovarian
PC-3 prostate = system: PC-3 prostate
SK-OV-3 ovarian = system: SK-OV-3 ovarian
SNB-19 CNS = system: SNB-19 CNS
SW-620 colon = system: SW-620 colon

Structure (SMILES)	TGI (ACHN renal)	TGI (HCC-2998 colon)	TGI (HL-60(TB) leukemia)	TGI (IGROV1 ovarian)	TGI (NCI-H226 lung) [µM]	TGI (OVCAR-3 ovarian)	TGI (PC-3 prostate)	TGI (SK-OV-3 ovarian)	TGI (SNB-19 CNS)	TGI (SW-620 colon)	GI50 (ACHN renal)	GI50 (HCC-2998 colon)	GI50 (HL-60(TB) leukemia)	GI50 (IGROV1 ovarian)	GI50 (NCI-H226 lung)	GI50 (OVCAR-3 ovarian)	GI50 (PC-3 prostate)	GI50 (SK-OV-3 ovarian)	GI50 (SNB-19 CNS)	GI50 (SW-620 colon)
COc1ccccc1NC(=O)CC(=O)n1nc(C)c(N=Nc2ccccc2Cl)c1C	> 100 µM	> 100 µM	> 100 µM	> 100 µM	> 100	> 100 µM	> 100 µM	98.6 µM	> 100 µM	> 100 µM										
COc1cc(NS(C)(=O)=O)ccc1Cc1c2ccccc2nc2ccccc12	1.11 µM	2.35 µM	0.141 µM	2.88 µM	0.462	2.06 µM	15.6 µM	1.02 µM	3.35 µM	2.34 µM	0.0463 µM	0.433 µM	0.0258 µM	0.414 µM	0.107 µM	0.785 µM	0.461 µM	0.115 µM	0.134 µM	0.121 µM
COc1cc2c(cc1O)c(=O)n(CCN(C)C)c1c3cc4c(cc3ncc21)OCO4	0.0464 µM	0.398 µM	0.104 µM	8.2 µM	0.124	0.423 µM	2.51 µM	0.0876 µM	5.3 µM	> 33.2 µM	< 0.01 µM	0.109 µM	< 0.01 µM	0.0417 µM	0.0184 µM	0.0388 µM	0.243 µM	< 0.0106 µM	< 0.01 µM	< 0.01 µM
COc1ccc2nc3c(cc2c1)C(=O)CC(c1ccccc1)C3 (stereo not drawn)	> 100 µM	> 100 µM		> 100 µM	> 100	10.4 µM	> 100 µM	> 100 µM	> 100 µM	> 100 µM	0.853 µM	15.9 µM	0.301 µM	2.32 µM	2.53 µM	1.4 µM	0.901 µM	2.09 µM	2.94 µM	0.727 µM
O=C(Nc1n[nH]c2nc(-c3ccc(O)cc3)c(Br)cc12)C1CC1	> 21.8 µM	> 20.3 µM	15.4 µM	> 20.6 µM	13.5	9.14 µM	> 23.4 µM	11.8 µM	> 24.1 µM	> 25 µM	2.62 µM	4.76 µM	2.79 µM	5.75 µM	3.14 µM	1.39 µM	4.49 µM	2.67 µM	6.96 µM	4.36 µM
COc1ccc(C2CC(c3ccc(OC)cc3O)=NN2c2ccc(S(N)(=O)=O)cc2)cc1 (stereo not drawn)	> 100 µM	> 100 µM	47.9 µM	> 100 µM	> 100	> 100 µM	> 100 µM	> 100 µM	> 100 µM	> 100 µM	5.86 µM	16.5 µM	11.9 µM	6.34 µM	11.7 µM	12.2 µM	4.29 µM	26.1 µM	27.3 µM	16 µM
O=C1/C(=C/c2ccc(F)cc2)CN(C(=O)C(Cl)Cl)C/C1=C\c1ccc(F)cc1	0.603 µM	0.351 µM	1.55 µM	0.41 µM	22.5	0.778 µM	0.818 µM	2.2 µM	1.25 µM	0.119 µM	0.24 µM	0.178 µM	0.229 µM	0.188 µM	4.22 µM	0.262 µM	0.25 µM	0.884 µM	0.287 µM	0.0365 µM
CCc1[nH]nc(C(N)=O)c1N=NN(C)C	> 100 µM	> 100 µM	> 100 µM	> 100 µM	> 100	> 100 µM	> 100 µM	> 100 µM	> 100 µM	> 100 µM										
S=C1SCN(Cc2ccccc2)CN1Cc1ccccc1	28.2 µM	37.8 µM	3.83 µM	12.2 µM	> 50.8	9.09 µM	15.6 µM	> 100 µM	> 100 µM	11.8 µM	14.8 µM	21.7 µM	1.17 µM	4.39 µM	> 32.6 µM	2.49 µM	3.36 µM	98.7 µM	> 54.7 µM	3.02 µM
O=C(Nc1cn[nH]c1-c1nc2ccc(CN3CCOCC3)cc2[nH]1)NC1CC1	17.7 µM and > 10 µM	3.81 µM and > 10 µM	5.15 µM and > 10 µM	19.8 µM and > 10 µM		6.3 µM and 6.7 µM	36.2 µM and > 10 µM	3.52 µM and 8.08 µM	11.3 µM and > 10 µM	11.5 µM and > 10 µM	2.47 µM and 5.7 µM	1.76 µM and > 10 µM	1.94 µM and 7.38 µM	2.75 µM and 2.67 µM	0.153 µM and 0.312 µM	0.306 µM and 1.32 µM	0.957 µM and 4.29 µM	0.375 µM and 0.299 µM	1.16 µM and 2.62 µM	0.573 µM and 1.32 µM
C#Cc1cccc(NC(=O)c2cccc(NC(=O)CCl)c2)c1	42.9 µM	> 82.5 µM	39.7 µM	19.1 µM	59.4	29.4 µM	70.7 µM	> 82.5 µM	> 82.5 µM	17 µM	15.2 µM	29.8 µM	13.2 µM	5.79 µM	19.8 µM	14.2 µM	18.9 µM	56.4 µM	31.1 µM	4.55 µM
